Measured values from PubChem BioAssay AID1963421 (Molecular Pharmacology Branch, DTP, NCI, 2024).

Test system: 519858-162-T-J1-PDC complex spheroid growth, % test/control
Experiment: Anticancer human tumor 519858-162-T-J1-PDC patient-derived colon adenocarcinoma cell line growth inhibition [Asc]
Conditions: for IC50: curve of first compound; for viability, T/C: stronger effect = lower value; active = viability on the fitted dose curve at most 10% of control; inactive = the rest
How it was run: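 Stromal components (HUVEC and hMSC) are co-assembled with the cancer cells into multicellular spheroids. Drugs are then added singly or paired, at concentrations falling by half-log increments from a clinically achievable maximum, capped at 10 microM without known Cmax.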

[1] = second compound 0.00316 µM, first compound 0.00316 µM
[2] = second compound 0.00316 µM, first compound 0.01 µM
[3] = second compound 0.00316 µM, first compound 0.0316 µM
[4] = second compound 0.00316 µM, first compound 0.1 µM
[5] = second compound 0.00316 µM, first compound 0.316 µM
[6] = second compound 0.00316 µM, first compound 1 µM
[7] = second compound 0.01 µM, first compound 0.00316 µM
[8] = second compound 0.01 µM, first compound 0.01 µM
[9] = second compound 0.01 µM, first compound 0.0316 µM
[10] = second compound 0.01 µM, first compound 0.1 µM
[11] = second compound 0.01 µM, first compound 0.316 µM
[12] = second compound 0.01 µM, first compound 1 µM
[13] = second compound 0.0316 µM, first compound 0.00316 µM
[14] = second compound 0.0316 µM, first compound 0.01 µM
[15] = second compound 0.0316 µM, first compound 0.0316 µM
[16] = second compound 0.0316 µM, first compound 0.1 µM
[17] = second compound 0.0316 µM, first compound 0.316 µM
[18] = second compound 0.0316 µM, first compound 1 µM
[19] = second compound 0.1 µM, first compound 0.00316 µM
[20] = second compound 0.1 µM, first compound 0.01 µM
[21] = second compound 0.1 µM, first compound 0.0316 µM
[22] = second compound 0.1 µM, first compound 0.1 µM
[23] = second compound 0.1 µM, first compound 0.316 µM
[24] = second compound 0.1 µM, first compound 1 µM
[25] = second compound 0.316 µM, first compound 0.00316 µM
[26] = second compound 0.316 µM, first compound 0.01 µM
[27] = second compound 0.316 µM, first compound 0.0316 µM
[28] = second compound 0.316 µM, first compound 0.1 µM
[29] = second compound 0.316 µM, first compound 0.316 µM
[30] = second compound 0.316 µM, first compound 1 µM
[31] = second compound 1 µM, first compound 0.00316 µM
[32] = second compound 1 µM, first compound 0.01 µM
[33] = second compound 1 µM, first compound 0.0316 µM
[34] = second compound 1 µM, first compound 0.1 µM
[35] = second compound 1 µM, first compound 0.316 µM
[36] = second compound 1 µM, first compound 1 µM
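Also: seven day drug exposure begun three days after spheroid seeding.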
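For viability, T/C in this document: 100% = DMSO vehicle wells and lower values mean less viable spheroid.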

CCN1CCN(Cc2ccc(Nc3ncc(F)c(-c4cc(F)c5nc(C)n(C(C)C)c5c4)n3)nc2)CC1 + CNC(C)C(=O)NC1CN(S(=O)(=O)c2cccc(S(=O)(=O)N3CCC4CCC(C(=O)NC(c5ccccc5)c5ccccc5)N4C(=O)C(NC(=O)C(C)NC)C3)c2)CCC2CCC(C(=O)NC(c3ccccc3)c3ccccc3)N2C1=O
inactive: viability, T/C [1] 98% | viability, T/C [2] 99.6% | viability, T/C [3] 127% | viability, T/C [4] 115% | viability, T/C [5] 84.4% | viability, T/C [6] 70% | viability, T/C [7] 108% | viability, T/C [8] 107% | viability, T/C [9] 95.1% | viability, T/C [10] 64.7% | viability, T/C [11] 79.1% | viability, T/C [12] 93% | viability, T/C [13] 116% | viability, T/C [14] 112% | viability, T/C [15] 94.8% | viability, T/C [16] 96.6% | viability, T/C [17] 86.4% | viability, T/C [18] 77.2% | viability, T/C [19] 128% | viability, T/C [20] 120% | viability, T/C [21] 106% | viability, T/C [22] 89.3% | viability, T/C [23] 84.2% | viability, T/C [24] 76.3% | viability, T/C [25] 77% | viability, T/C [26] 91.7% | viability, T/C [27] 120% | viability, T/C [28] 67.6% | viability, T/C [29] 47.6% | viability, T/C [30] 71.7% | viability, T/C [31] 115% | viability, T/C [32] 117% | viability, T/C [33] 107% | viability, T/C [34] 80.1% | viability, T/C [35] 77.9% | viability, T/C [36] 83.4%
> 1000 nM: IC50 (second compound 0.00316 µM) | IC50 (second compound 0.01 µM) | IC50 (second compound 0.0316 µM) | IC50 (second compound 0.1 µM) | IC50 (second compound 0.316 µM) | IC50 (second compound 1 µM)

O=C(c1ccc(F)c(F)c1Nc1ccc(I)cc1F)N1CC(O)([C@@H]2CCCCN2)C1 + CNC(C)C(=O)NC1CN(S(=O)(=O)c2cccc(S(=O)(=O)N3CCC4CCC(C(=O)NC(c5ccccc5)c5ccccc5)N4C(=O)C(NC(=O)C(C)NC)C3)c2)CCC2CCC(C(=O)NC(c3ccccc3)c3ccccc3)N2C1=O
241 nM: IC50 (second compound 0.1 µM)
inactive: viability, T/C [1] 119% | viability, T/C [2] 133% | viability, T/C [3] 95.9% | viability, T/C [4] 111% | viability, T/C [5] 49.7% | viability, T/C [6] 13.8% | viability, T/C [7] 93.9% | viability, T/C [8] 112% | viability, T/C [9] 74.7% | viability, T/C [10] 86.2% | viability, T/C [11] 34.6% | viability, T/C [12] 18.8% | viability, T/C [13] 121% | viability, T/C [14] 107% | viability, T/C [15] 79.7% | viability, T/C [16] 101% | viability, T/C [17] 44.2% | viability, T/C [18] 14.3% | viability, T/C [19] 99.4% | viability, T/C [20] 86.4% | viability, T/C [21] 107% | viability, T/C [22] 84.5% | viability, T/C [23] 39.2% | viability, T/C [24] 13.5% | viability, T/C [25] 80.6% | viability, T/C [26] 122% | viability, T/C [27] 86.8% | viability, T/C [28] 79.2% | viability, T/C [29] 43.5% | viability, T/C [30] 16% | viability, T/C [31] 77.5% | viability, T/C [32] 89.2% | viability, T/C [33] 117% | viability, T/C [34] 79.7% | viability, T/C [35] 45.4% | viability, T/C [36] 18.6%
316 nM: IC50 (second compound 0.00316 µM)
284 nM: IC50 (second compound 0.0316 µM)
254 nM: IC50 (second compound 0.316 µM)
224 nM: IC50 (second compound 0.01 µM)
268 nM: IC50 (second compound 1 µM)
